11 molecules from ChEMBL document CHEMBL2151036, “Chemocentric informatics approach to drug discovery: identification and experimental validation of selective estrogen receptor modulators as ligands of 5-hydroxytryptamine-6 receptors and as potential cognition enhancers” (J Med Chem, 2012) can be followed below.

The assay has as its target 5-hydroxytryptamine receptor 6 (Homo sapiens, UniProt P50406). Nature of the assay: Displacement of [3H]LSD from human 5HT6 receptor expressed in HEK293 cells after 1.5 hrs by liquid scintillation counting. For orientation: In a radioligand displacement assay an active substance lowers the binding of a labelled ligand.

In general, Ki refers to a measure of affinity in units of concentration, obtained from inhibition or displacement.

Molecules are shown by their SMILES.

Sequence of 5-hydroxytryptamine receptor 6 (P50406 whole entry): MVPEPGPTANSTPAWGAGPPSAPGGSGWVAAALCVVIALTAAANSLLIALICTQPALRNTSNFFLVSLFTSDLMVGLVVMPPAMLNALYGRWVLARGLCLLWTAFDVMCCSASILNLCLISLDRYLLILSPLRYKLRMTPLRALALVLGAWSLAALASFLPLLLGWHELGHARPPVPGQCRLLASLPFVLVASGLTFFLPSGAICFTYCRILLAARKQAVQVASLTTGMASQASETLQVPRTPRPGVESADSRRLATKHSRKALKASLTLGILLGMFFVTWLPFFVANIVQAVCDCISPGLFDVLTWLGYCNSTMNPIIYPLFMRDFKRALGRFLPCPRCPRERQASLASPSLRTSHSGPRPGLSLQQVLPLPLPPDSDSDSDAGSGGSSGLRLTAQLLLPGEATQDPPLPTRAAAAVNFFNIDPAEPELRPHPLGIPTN

With `CN(C)CCCN1c2ccccc2CCc2ccc(Cl)cc21` [CLOMIPRAMINE], the Ki was 112 nM.

Regarding `CC(NCCC(c1ccccc1)c1ccccc1)c1ccccc1` (stereo unspecified) [FENDILINE], where the note is “hek293”, the Ki result is on record as “Not Active”.

The molecule `CN(C)CCOc1ccc(/C(=C(/CCCl)c2ccccc2)c2ccccc2)cc1` [TOREMIFENE] showed a Ki of 4120 nM.

`CNCCC=C1c2ccccc2CCc2ccccc21` [NORTRIPTYLINE]: the inhibitory constant (Ki) is 214 nM. Compared with the last molecule, the Ki is about 19-fold lower.

For `O=c1cc(N2CCOCC2)oc2c(-c3ccccc3)cccc12` [LY-294002], for the setting “hek293”, the inhibition constant (Ki) entry is “Not Active”.

In turn, `O=C(c1ccc(OCCN2CCCCC2)cc1)c1c(-c2ccc(O)cc2)sc2cc(O)ccc12` [RALOXIFENE] showed a Ki of 750 nM.

Take `O=C1NCN(c2ccccc2)C12CCN(CCCC(c1ccc(F)cc1)c1ccc(F)cc1)CC2`: the inhibition constant Ki amounted to 1190 nM.

As for `COc1ccccc1N1CCN(CCCCNC(=O)c2ccc3ccccc3c2)CC1` [BP-897], the inhibition constant (Ki) result (hek293) was “Not Active”.

In turn, `CC/C(=C(\c1ccccc1)c1ccc(OCCN(C)C)cc1)c1ccccc1` [TAMOXIFEN] returned a Ki of 1040 nM.

Molecule `OCCN1CCN(CC/C=C2/c3ccccc3Sc3ccc(Cl)cc32)CC1` [ZUCLOPENTHIXOL] showed a Ki of 169 nM. Against the preceding molecule, the Ki is about 6.2-fold lower.

As to `CCN(CC)CCOc1ccc(C(=C(Cl)c2ccccc2)c2ccccc2)cc1` [CLOMIPHENE], the Ki is 1960 nM.
